From paper PMC3447897 (Diabetes, 2012)
Residues, ends and D or L forms follow the SMILES beside them.

How the values were obtained:
HLA-B7.2 = HLA-B7.2 (Homo sapiens, UniProt P01889); assay: HLA-B7 peptide binding affinity assay
[1] = test system: epitope-specific TMr+CD8+ T cells; details: median over 7 HLA-A2+ new-onset T1D patients; cited from earlier work

Sequence of HLA-B7.2 (P01889 25-299 limits assumed): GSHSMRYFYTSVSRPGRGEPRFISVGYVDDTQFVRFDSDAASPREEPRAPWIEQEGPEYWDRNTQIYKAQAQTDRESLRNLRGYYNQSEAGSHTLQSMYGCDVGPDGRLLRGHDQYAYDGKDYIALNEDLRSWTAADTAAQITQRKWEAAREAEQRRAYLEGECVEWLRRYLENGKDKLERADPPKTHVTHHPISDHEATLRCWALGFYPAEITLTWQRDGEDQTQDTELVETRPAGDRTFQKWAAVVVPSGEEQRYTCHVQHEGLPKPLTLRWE
Sequence of HLA-B7.2 (P61769 21-119 partner): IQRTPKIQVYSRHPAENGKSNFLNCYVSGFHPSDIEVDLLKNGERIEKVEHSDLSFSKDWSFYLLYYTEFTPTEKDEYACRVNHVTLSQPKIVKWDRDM

Row | Compound | Kd (HLA-B7.2) [µM] | percent of epitope-specific T cells expressing IFNG mRNA, HLA-A2–restricted [1] [%] | percent of epitope-specific T cells expressing TGFB mRNA, HLA-A2–restricted [1] [%]
1 | CC[C@H](C)[C@H](N)C(=O)N1CCC[C@H]1C(=O)N[C@@H](CO)C(=O)N[C@@H](CC(=O)O)C(=O)N[C@@H](CC(C)C)C(=O)N[C@@H](CCC(=O)O)C(=O)N[C@@H](CCCNC(=N)N)C(=O)N[C@@H](CCCNC(=N)N)C(=O)N[C@H](C(=O)N[C@@H](CC(C)C)C(=O)O)[C@@H](C)CC [GAD311–320] (H-IPSDLERRIL-OH) | 0.1 |  | 
2 | CC[C@H](C)[C@H](NC(=O)[C@@H](NC(=O)[C@@H]1CCCN1C(=O)[C@H](C)N)C(C)C)C(=O)N[C@@H](CCCCN)C(=O)N[C@@H](C)C(=O)N[C@@H](CCCNC(=N)N)C(=O)N[C@@H](CCSC)C(=O)N[C@@H](CCSC)C(=O)O [GAD530–538] (H-APVIKARMM-OH) | 0.061 |  | 
3 | CC(C)C[C@H](NC(=O)[C@H](C)NC(=O)[C@H](CC(C)C)NC(=O)[C@H](CC(C)C)NC(=O)[C@H](C)NC(=O)[C@H](CC(C)C)NC(=O)[C@H](CC(C)C)NC(=O)[C@@H]1CCCN1C(=O)[C@@H](N)CC(C)C)C(=O)O [PPI8–16] (H-LPLLALLAL-OH) | 1.09 |  | 
4 | PPI6–14: HLA-A2–restricted preproinsulin epitope used for comparison (RLLPLLALL; UniProt P01308 6-14, looked up, fragment) |  | 60 | 13
